Where two headings read alike, the source gives them in different places.
Tested on: Male Sprague-Dawley rats
Conditions: six-hour delay

Nc1c2c(nc3ccccc13)CCCC2 [Tacrine, tacrine]
retention in the eight arm radial maze (3 mg/kg s.c. immediately after the sampling phase): not
retention in the eight arm radial maze (10 mg/kg s.c. immediately after the sampling phase): significantly improved retention

From patent US7326731B2, “Muscarinic agonists” (Eli Lilly and Company, priority 2002, dated 2008)
